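Protocol summary: plate cells (96-well), add compound at 5 concentrations, incubate 48 h, interpolate endpoints linearly. GI50 = concentration required for 50% inhibition of growth.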 Calls of active or inactive are those of the source. Rule as the data show it: active = GI50 up to about 1.1 µM and inactive = higher.
Tests used:
Assay in all cases: growth of human tumour cells (NCI), 48 h
[1] = tested on: HOP-92
[2] = tested on: SK-MEL-5
[3] = tested on: M14
[4] = tested on: HCT-116
[5] = tested on: UACC-62
[6] = tested on: SK-OV-3
[7] = tested on: SK-MEL-2
[8] = tested on: HL-60
[9] = tested on: SK-MEL-28
[10] = tested on: SF-268
[11] = tested on: KM12
[12] = tested on: RXF 393
[13] = tested on: UO-31
[14] = tested on: PC-3
[15] = tested on: TK-10
[16] = tested on: NCI/ADR-RES
[17] = tested on: RPMI-8226
[18] = tested on: DU-145
[19] = tested on: T47D
[20] = tested on: K562
[21] = tested on: COLO 205
[22] = tested on: Hs-578T
[23] = tested on: A549
[24] = tested on: MOLT-4
[25] = tested on: SNB-19
[26] = tested on: BT-549
[27] = tested on: ACHN
[28] = tested on: OVCAR-4
[29] = tested on: LOX IMVI
[30] = tested on: SN12C
[31] = tested on: UACC-257
[32] = tested on: IGROV-1
[33] = tested on: NCI-H23
[34] = tested on: CAKI-1
[35] = tested on: 786-0
[36] = tested on: NCI-H460
[37] = tested on: HOP-62
[38] = tested on: MDA-N
[39] = tested on: MCF7
[40] = tested on: EKVX
[41] = tested on: OVCAR-5
[42] = tested on: SF-295
[43] = tested on: SR
[44] = tested on: U-251
[45] = tested on: MDA-MB-231
[46] = tested on: A498
[47] = tested on: NCI-H522
[48] = tested on: OVCAR-3
[49] = tested on: SW-620
[50] = tested on: SF-539
[51] = tested on: NCI-H226
[52] = tested on: HT-29
[53] = tested on: OVCAR-8
[54] = tested on: HCT-15
[55] = tested on: Malme-3M
[56] = tested on: SNB-75
[57] = tested on: MDA-MB-435
[58] = tested on: CCRF-CEM

NC(C(=O)O)C(N)C(=O)O (stereo unspecified)
GI50 [1]: > 100 µM (inactive)
GI50 [2]: > 100 µM (inactive)
GI50 [3]: > 100 µM (inactive)
GI50 [4]: > 100 µM (inactive)
GI50 [5]: > 100 µM (inactive)
GI50 [6]: > 100 µM (inactive)
GI50 [7]: > 100 µM (inactive)
GI50 [8]: > 100 µM (inactive)
GI50 [9]: > 100 µM (inactive)
GI50 [10]: > 100 µM (inactive)
GI50 [11]: > 100 µM (inactive)
GI50 [12]: > 100 µM (inactive)
GI50 [13]: > 100 µM (inactive)
GI50 [14]: > 100 µM (inactive)
GI50 [15]: > 100 µM (inactive)
GI50 [16]: > 100 µM (inactive)
GI50 [17]: > 100 µM (inactive)
GI50 [18]: > 100 µM (inactive)
GI50 [19]: > 100 µM (inactive)
GI50 [20]: > 100 µM (inactive)
GI50 [21]: > 100 µM (inactive)
GI50 [22]: > 100 µM (inactive)
GI50 [23]: > 100 µM (inactive)
GI50 [24]: > 100 µM (inactive)
GI50 [25]: > 100 µM (inactive)
GI50 [26]: > 100 µM (inactive)
GI50 [27]: > 100 µM (inactive)
GI50 [28]: > 100 µM (inactive)
GI50 [29]: > 100 µM (inactive)
GI50 [30]: > 100 µM (inactive)
GI50 [31]: > 100 µM (inactive)
GI50 [32]: > 100 µM (inactive)
GI50 [33]: > 100 µM (inactive)
GI50 [34]: > 100 µM (inactive)
GI50 [35]: > 100 µM (inactive)
GI50 [36]: > 100 µM (inactive)
GI50 [37]: > 100 µM (inactive)
GI50 [38]: > 100 µM (inactive)
GI50 [39]: > 100 µM (inactive)
GI50 [40]: > 100 µM (inactive)
GI50 [41]: > 100 µM (inactive)
GI50 [42]: > 100 µM (inactive)
GI50 [43]: > 100 µM (inactive)
GI50 [44]: > 100 µM (inactive)
GI50 [45]: > 100 µM (inactive)
GI50 [46]: > 100 µM (inactive)
GI50 [47]: > 100 µM (inactive)
GI50 [48]: > 100 µM (inactive)
GI50 [49]: > 100 µM (inactive)
GI50 [50]: > 100 µM (inactive)
GI50 [51]: > 100 µM (inactive)
GI50 [52]: > 100 µM (inactive)
GI50 [53]: > 100 µM (inactive)
GI50 [54]: > 100 µM
GI50 [55]: > 100 µM (inactive)

O=C(CC(=O)CC(O)(C(F)(F)F)C(F)(F)F)CC(O)(C(F)(F)F)C(F)(F)F
GI50 [1]: 5.75 µM (inactive)
GI50 [2]: > 10 µM (inactive)
GI50 [3]: > 10 µM (inactive)
GI50 [4]: > 10 µM (inactive)
GI50 [5]: > 10 µM (inactive)
GI50 [6]: > 10 µM (inactive)
GI50 [7]: > 10 µM (inactive)
GI50 [8]: > 10 µM (inactive)
GI50 [9]: > 10 µM (inactive)
GI50 [10]: > 10 µM (inactive)
GI50 [11]: > 10 µM (inactive)
GI50 [12]: > 10 µM (inactive)
GI50 [13]: > 10 µM (inactive)
GI50 [15]: > 10 µM (inactive)
GI50 [16]: > 10 µM (inactive)
GI50 [17]: > 10 µM (inactive)
GI50 [18]: > 10 µM (inactive)
GI50 [19]: > 10 µM (inactive)
GI50 [20]: > 10 µM (inactive)
GI50 [21]: > 10 µM (inactive)
GI50 [22]: > 10 µM (inactive)
GI50 [23]: > 10 µM (inactive)
GI50 [24]: > 10 µM (inactive)
GI50 [25]: > 10 µM (inactive)
GI50 [26]: > 10 µM (inactive)
GI50 [27]: > 10 µM (inactive)
GI50 [28]: > 10 µM (inactive)
GI50 [29]: > 10 µM (inactive)
GI50 [30]: > 10 µM (inactive)
GI50 [31]: > 10 µM (inactive)
GI50 [32]: > 10 µM (inactive)
GI50 [33]: > 10 µM (inactive)
GI50 [34]: > 10 µM (inactive)
GI50 [56]: > 10 µM (inactive)
GI50 [35]: > 10 µM (inactive)
GI50 [36]: > 10 µM (inactive)
GI50 [37]: > 10 µM (inactive)
GI50 [38]: > 10 µM (inactive)
GI50 [39]: > 10 µM (inactive)
GI50 [57]: > 10 µM (inactive)
GI50 [40]: > 10 µM (inactive)
GI50 [41]: > 10 µM (inactive)
GI50 [42]: > 10 µM (inactive)
GI50 [58]: > 10 µM (inactive)
GI50 [44]: > 10 µM (inactive)
GI50 [45]: > 10 µM (inactive)
GI50 [46]: > 10 µM (inactive)
GI50 [47]: > 10 µM (inactive)
GI50 [48]: > 10 µM (inactive)
GI50 [49]: > 10 µM (inactive)
GI50 [50]: > 10 µM (inactive)
GI50 [51]: > 10 µM (inactive)
GI50 [52]: 8.49 µM (inactive)
GI50 [53]: > 10 µM (inactive)
GI50 [54]: > 10 µM
GI50 [55]: > 10 µM (inactive)

— ChEMBL document CHEMBL1201862, “PubChem BioAssay data set” (2004)
